Source: US8716292B2, “Riminophenazines with 2-(heteroaryl)amino substituents and their anti-microbial activity” (priority 2010, dated 2014)
In brackets after ≈: the same amount, converted by molar mass.

test system: Mycobacterium tuberculosis H37Rv strains; experiment: In vitro assay for antimicrobial susceptibility (microplate Alamar blue MIC); type: cell-based; settings: Mycobacterium tuberculosis, H37RV, in vitro, Mycobacterium tuberculosis H37Rv strains; read-out: MIC (μg/mL) against H37Rv

Row | SMILES | MIC
1 | CSc1ccc(-n2c3c/c(=N\C(C)C)c(Nc4cccnc4)cc-3nc3ccccc32)cc1 [TBI-456, 5-(4-Methylthiophenyl)-3-(1-methylethyl)imino-2-(3-pyridyl)amino-3,5-dihydrophenazine] | 0.05 µg/mL (≈ 0.111 µM)
2 | CC(C)/N=c1\cc2n(-c3ccc([S+](C)[O-])cc3)c3ccccc3nc-2cc1Nc1cccnc1 (centres unmarked) [TBI-457, 5-(4-Methylsulfinylphenyl)-3-(1-methylethyl)imino-2-(3-pyridyl)amino-3,5-dihydrophenazine] | 0.469 µg/mL (≈ 1 µM)
3 | Clc1ccc(-n2c3c/c(=N\C4CCSCC4)c(Nc4cccnc4)cc-3nc3ccccc32)cc1 [TBI-458] | 0.018 µg/mL (≈ 0.0361 µM)
4 | Cc1ccc(Nc2cc3nc4ccccc4n(-c4ccc(Br)cc4)c-3c/c2=N\C2CCC2)cn1 [TBI-501, 5-(4-Bromophenyl)-3-cyclobutylimino-2-(6-methyl-3-pyridyl)amino-3,5-dihydrophenazine] | 0.09 µg/mL (≈ 0.176 µM)
5 | Cc1ccc(Nc2cc3nc4ccccc4n(-c4ccc(Br)cc4)c-3c/c2=N\C2CCCCC2)cn1 [TBI-502, 5-(4-Bromophenyl)-3-cyclohexylimino-2-(6-methyl-3-pyridyl)amino-3,5-dihydrophenazine] | 0.217 µg/mL (≈ 0.403 µM)
6 | COC1CCC(/N=c2\cc3n(-c4ccc(Br)cc4)c4ccccc4nc-3cc2Nc2ccc(C)nc2)CC1 (centres unmarked) [TBI-503, 5-(4-Bromophenyl)-3-(4-methoxycyclohexyl)imino-2-(6-methyl-3-pyridyl)amino-3,5-dihydrophenazine] | 0.097 µg/mL (≈ 0.171 µM)
7 | Cc1ccc(Nc2cc3nc4ccccc4n(-c4ccc(Br)cc4)c-3c/c2=N\C2CCOCC2)cn1 [TBI-504, 5-(4-Bromophenyl)-3-(4-tetrahydropyranyl)imino-2-(6-methyl-3-pyridyl)amino-3,5-dihydrophenazine] | 0.044 µg/mL (≈ 0.0814 µM)
8 | COc1ncccc1Nc1cc2nc3ccccc3n(-c3ccccc3)c-2c/c1=N\C1CCC1 [TBI-505, 5-Phenyl-3-cyclobutylimino-2-(2-methoxy-3-pyridyl)amino-3,5-dihydrophenazine] | 0.043 µg/mL (≈ 0.0961 µM)
9 | Cc1ccc(Nc2cc3nc4ccccc4n(-c4ccccc4)c-3c/c2=N\C2CCC2)cn1 [TBI-506, 5-Phenyl-3-cyclobutylimino-2-(6-methyl-3-pyridyl)amino-3,5-dihydrophenazine] | 0.05 µg/mL (≈ 0.116 µM)
10 | Cc1ncccc1Nc1cc2nc3ccccc3n(-c3ccc(Br)cc3)c-2c/c1=N\C(C)C [TBI-507, 5-(4-Bromophenyl)-3-(1-methylethyl)imino-2-(2-methyl-3-pyridyl)amino-3,5-dihydrophenazine] | 0.062 µg/mL (≈ 0.124 µM)
11 | Cc1ncccc1Nc1cc2nc3ccccc3n(-c3ccc(Br)cc3)c-2c/c1=N\C1CCCCC1 [TBI-508, 5-(4-Bromophenyl)-3-cyclohexylimino-2-(2-methyl-3-pyridyl)amino-3,5-dihydrophenazine] | 0.021 µg/mL (≈ 0.039 µM)
12 | COC1CCC(/N=c2\cc3n(-c4ccc(Br)cc4)c4ccccc4nc-3cc2Nc2cccnc2C)CC1 (centres unmarked) [TBI-509, 5-(4-Bromophenyl)-3-(4-methoxycyclohexyl)imino-2-(2-methyl-3-pyridyl)amino-3,5-dihydrophenazine] | 0.015 µg/mL (≈ 0.0264 µM)
13 | COc1ccc(Nc2cc3nc4ccccc4n(-c4ccccc4)c-3c/c2=N\C(C)C)cn1 [TBI-510, 5-Phenyl-3-(1-methylethyl)imino-2-(6-methoxy-3-pyridyl)amino-3,5-dihydrophenazine] | 0.5 µg/mL (≈ 1.15 µM)
14 | COc1ccc(Nc2cc3nc4ccccc4n(-c4ccccc4)c-3c/c2=N\C2CC2)cn1 [TBI-511, 5-Phenyl-3-cyclopropylimino-2-(6-methoxy-3-pyridyl)amino-3,5-dihydrophenazine] | 0.177 µg/mL (≈ 0.408 µM)
15 | COc1ccc(Nc2cc3nc4ccccc4n(-c4ccccc4)c-3c/c2=N\C2CCC2)cn1 [TBI-512, 5-Phenyl-3-cyclobutylimino-2-(6-methoxy-3-pyridyl)amino-3,5-dihydrophenazine] | 0.41 µg/mL (≈ 0.916 µM)
16 | COc1ccc(Nc2cc3nc4ccccc4n(-c4ccccc4)c-3c/c2=N\C2CCCCC2)cn1 [TBI-513, 5-Phenyl-3-cyclohexylimino-2-(6-methoxy-3-pyridyl)amino-3,5-dihydrophenazine] | 0.244 µg/mL (≈ 0.513 µM)
17 | COc1ccc(Nc2cc3nc4ccccc4n(-c4ccccc4)c-3c/c2=N\C2CCC(OC)CC2)cn1 (centres unmarked) [TBI-514, 5-Phenyl-3-(4-methoxycyclohexyl)imino-2-(6-methoxy-3-pyridyl)amino-3,5-dihydrophenazine] | 0.243 µg/mL (≈ 0.481 µM)
18 | COc1ccc(Nc2cc3nc4ccccc4n(-c4ccccc4)c-3c/c2=N\C2CCOCC2)cn1 [TBI-515, 5-Phenyl-3-(4-tetrahydropyranyl)imino-2-(6-methoxy-3-pyridyl)amino-3,5-dihydrophenazine] | 0.233 µg/mL (≈ 0.488 µM)
19 | COc1ncccc1Nc1cc2nc3ccccc3n(-c3ccc(Br)cc3)c-2c/c1=N\C(C)C [TBI-516, 5-(4-Bromophenyl)-3-(1-methylethyl)imino-2-(2-methoxy-3-pyridyl)amino-3,5-dihydrophenazine] | 0.049 µg/mL (≈ 0.0953 µM)
20 | COc1ncccc1Nc1cc2nc3ccccc3n(-c3ccc(Br)cc3)c-2c/c1=N\C1CCCCC1 [TBI-517, 5-(4-Bromophenyl)-3-cyclohexylimino-2-(2-methoxy-3-pyridyl)amino-3,5-dihydrophenazine] | 0.029 µg/mL (≈ 0.0523 µM)
21 | COc1ncccc1Nc1cc2nc3ccccc3n(-c3ccc(Br)cc3)c-2c/c1=N\C1CCOCC1 [TBI-518, 5-(4-Bromophenyl)-3-(4-tetrahydropyranyl)imino-2-(2-methoxy-3-pyridyl)amino-3,5-dihydrophenazine] | 0.02 µg/mL (≈ 0.0359 µM)

Row | SMILES | MIC
22 | COc1ncccc1Nc1cc2nc3ccccc3n(-c3ccc(Br)cc3)c-2c/c1=N\C1CCC1 [TBI-520] | 0.043 µg/mL (≈ 0.0817 µM)
23 | COc1ncccc1Nc1cc2nc3ccccc3n(-c3ccc(Br)cc3)c-2c/c1=N\C1CCC(OC)CC1 (centres unmarked) [TBI-521, 5-(4-Bromophenyl)-3-(4-methoxycyclohexyl)imino-2-(2-methoxy-3-pyridyl)amino-3,5-dihydrophenazine] | 0.031 µg/mL (≈ 0.053 µM)
24 | COc1ncccc1Nc1cc2nc3ccccc3n(-c3cccc(F)c3)c-2c/c1=N\C(C)C [TBI-523] | 0.06 µg/mL (≈ 0.132 µM)
25 | CC(C)/N=c1\cc2n(-c3ccc(F)c(F)c3)c3ccccc3nc-2cc1Nc1cccnc1 [TBI-525, 5-(3,4-Difluorophenyl)-3-(1-methylethyl)imino-2-(3-pyridyl)amino-3,5-dihydrophenazine] | 0.058 µg/mL (≈ 0.131 µM)
26 | Fc1ccc(-n2c3c/c(=N\C4CCC4)c(Nc4cccnc4)cc-3nc3ccccc32)cc1F [TBI-526, 5-(3,4-Difluorophenyl)-3-cyclobutylimino-2-(3-pyridyl)amino-3,5-dihydrophenazine] | 0.079 µg/mL (≈ 0.174 µM)
27 | Fc1ccc(-n2c3c/c(=N\C4CCCCC4)c(Nc4cccnc4)cc-3nc3ccccc32)cc1F [TBI-527, 5-(3,4-Difluorophenyl)-3-cyclohexylimino-2-(3-pyridyl)amino-3,5-dihydrophenazine] | 0.039 µg/mL (≈ 0.081 µM)
28 | COCC(COC)/N=c1\cc2n(-c3ccc(F)c(F)c3)c3ccccc3nc-2cc1Nc1cccnc1 [TBI-528, 5-(3,4-Difluorophenyl)-3-(1,3-dimethoxyisopropyl)imino-2-(3-pyridyl)amino-3,5-dihydrophenazine] | 0.216 µg/mL (≈ 0.431 µM)
29 | COc1ncccc1Nc1cc2nc3ccccc3n(-c3ccc(F)c(F)c3)c-2c/c1=N\C1CCC1 [TBI-530, 5-(3,4-Difluorophenyl)-3-cyclobutylimino-2-(2-methoxy-3-pyridyl)amino-3,5-dihydrophenazine] | 0.04 µg/mL (≈ 0.0827 µM)
30 | COc1ncccc1Nc1cc2nc3ccccc3n(-c3ccc(F)c(F)c3)c-2c/c1=N\C1CCCCC1 [TBI-531, 5-(3,4-Difluorophenyl)-3-cyclohexylimino-2-(2-methoxy-3-pyridyl)amino-3,5-dihydrophenazine] | 0.03 µg/mL (≈ 0.0586 µM)
31 | CC(C)/N=c1\cc2n(-c3ccc(F)cc3)c3ccccc3nc-2cc1Nc1cccnc1 [TBI-679, 5-(4-Fluorophenyl)-3-(1-methylethyl)imino-2-(3-pyridyl)amino-3,5-dihydrophenazine] | 0.03 µg/mL (≈ 0.0708 µM)
32 | Fc1ccc(-n2c3c/c(=N\CCN4CCOCC4)c(Nc4cccnc4)cc-3nc3ccccc32)cc1 [TBI-680, 5-(4-Fluorophenyl)-3-(2-morpholinoethyl)imino-2-(3-pyridyl)amino-3,5-dihydrophenazine] | 0.5 µg/mL (≈ 1.01 µM)
33 | Fc1ccc(-n2c3c/c(=N\C4CCOCC4)c(Nc4cccnc4)cc-3nc3ccccc32)cc1 [TBI-681, 5-(4-Fluorophenyl)-3-(4-tetrahydropyranyl)imino-2-(3-pyridyl)amino-3,5-dihydrophenazine] | 0.06 µg/mL (≈ 0.129 µM)
34 | CN1CCC(/N=c2\cc3n(-c4ccc(F)cc4)c4ccccc4nc-3cc2Nc2cccnc2)CC1 [TBI-682] | 0.25 µg/mL (≈ 0.522 µM)
35 | CC(C)CN1CCC(/N=c2\cc3n(-c4ccc(F)cc4)c4ccccc4nc-3cc2Nc2cccnc2)CC1 [TBI-683, 5-(4-Fluorophenyl)-3-(N-isobutyl-4-piperidyl)imino-2-(3-pyridyl)amino-3,5-dihydrophenazine] | 0.125 µg/mL (≈ 0.24 µM)
36 | Fc1ccc(-n2c3c/c(=N\C4CCN(C5CCCC5)CC4)c(Nc4cccnc4)cc-3nc3ccccc32)cc1 [TBI-684, 5-(4-Fluorophenyl)-3-(N-cyclopentyl-4-piperidyl)imino-2-(3-pyridyl)amino-3,5-dihydrophenazine] | 0.5 µg/mL (≈ 0.939 µM)
37 | COC1CCC(/N=c2\cc3n(-c4ccc(F)cc4)c4ccccc4nc-3cc2Nc2cccnc2)CC1 (centres unmarked) [TBI-685, 5-(4-Fluorophenyl)-3-(4-methoxycyclohexyl)imino-2-(3-pyridyl)amino-3,5-dihydrophenazine] | 0.125 µg/mL (≈ 0.253 µM)
38 | FC(F)(F)c1ccc(-n2c3c/c(=N\C4CCOCC4)c(Nc4cccnc4)cc-3nc3ccccc32)cc1 [TBI-686, 5-(4-Trifluoromethylphenyl)-3-(4-tetrahydropyranyl)imino-2-(3-pyridyl)amino-3,5-dihydrophenazine] | 0.125 µg/mL (≈ 0.242 µM)
39 | CC(C)CN1CCC(/N=c2\cc3n(-c4ccc(C(F)(F)F)cc4)c4ccccc4nc-3cc2Nc2cccnc2)CC1 [TBI-687, 5-(4-Trifluoromethylphenyl)-3-(N-isobutyl-4-piperidyl)imino-2-(3-pyridyl)amino-3,5-dihydrophenazine] | 0.06 µg/mL (≈ 0.105 µM)
40 | CN1CCC(/N=c2\cc3n(-c4ccc(C(F)(F)F)cc4)c4ccccc4nc-3cc2Nc2cccnc2)CC1 [TBI-689, 5-(4-Trifluoromethylphenyl)-3-(N-methyl-4-piperidyl)imino-2-(3-pyridyl)amino-3,5-dihydrophenazine] | 0.125 µg/mL (≈ 0.236 µM)
41 | FC(F)(F)c1ccc(-n2c3c/c(=N\CCN4CCOCC4)c(Nc4cccnc4)cc-3nc3ccccc32)cc1 [TBI-690, 5-(4-Trifluoromethylphenyl)-3-(2-morpholinoethyl)imino-2-(3-pyridyl)amino-3,5-dihydrophenazine] | 0.125 µg/mL (≈ 0.23 µM)
